Source: DBAASP
Values after ≈ are worked out from the molar mass of the structure shown. Values joined by “and” are separate entries in the source; they are usually repeats but may differ in a detail not shown here. Identical values can stand only once. Each block holds one molecule with its values, some of them ahead of it.

How the values were obtained:
Test in all cases: ≥ marks a high value that may be exact or a test limit, other limits are often not marked, values filed in µg/mL are converted to µM
[1] = test system: Pseudomonas aeruginosa ATCC 27853
[2] = test system: Salmonella enterica subsp. enterica serovar Typhimurium ATCC 14028
[3] = test system: Salmonella typhimurium ATCC 7731
Escherichia coli UB1005 = test system: Escherichia coli UB1005
[4] = test system: Staphylococcus aureus ATCC 29213
[5] = test system: Staphylococcus epidermidis ATCC 12228
[6] = test system: Bacillus subtilis CMCC 63501
[7] = test system: Pseudomonas aeruginosa PAK
[8] = test system: Streptococcus gordonii Challis DL1
[9] = test system: Streptococcus mitis ATCC 903
Staphylococcus aureus = test system: Staphylococcus aureus
[10] = test system: Streptococcus sanguinis NY101
[11] = test system: Streptococcus mutans UA159
[12] = test system: Escherichia coli ATCC 25922
[13] = test system: Enterobacter cloacae NHTCC 53001
[14] = test system: Staphylococcus epidermidis RP62A
[15] = test system: Proteus mirabilis ATCC 25933
[16] = test system: Enterococcus faecalis ATCC 29212
[17] = test system: Staphylococcus aureus NCTC 8325
[18] = test system: Candida albicans ATCC 90028
[19] = test system: Klebsiella pneumoniae KK3 9904
[20] = test system: Salmonella enterica subsp. enterica serovar Pullorum ATCC 7913
Escherichia coli 078 = test system: Escherichia coli 078
[21] = test system: Candida parapsilosis CGMCC 2.3989
[22] = test system: Salmonella enterica subsp. enterica serovar Typhimurium C77-31
Escherichia coli K88 = test system: Escherichia coli K88
[23] = test system: Candida tropicalis CGMCC 2.1975
Escherichia coli K99 = test system: Escherichia coli K99
[24] = test system: Staphylococcus aureus ATCC 43300
[25] = test system: Staphylococcus aureus ATCC 25923
[26] = test system: Bacillus subtilis ATCC 6633
[27] = test system: Shigella dysenteriae ATCC 9752
[28] = test system: Micrococcus luteus ATCC 10240
[29] = test system: Staphylococcus aureus ATCC 6538P
[30] = test system: Klebsiella pneumoniae ATCC 10031

MIC [1]: 4 µM and > 2 µM | MIC [2]: 4 µM (≈ 11 µg/mL) | MIC [3]: 2 µM (≈ 5.48 µg/mL) | MIC (Escherichia coli UB1005): 4 µM (≈ 11 µg/mL) | MIC [4]: 4 µM (≈ 11 µg/mL) | MIC [5]: 4 µM (≈ 11 µg/mL) | MIC [6]: 4 µM (≈ 11 µg/mL)
SMILES: CC[C@H](C)[C@H](NC(=O)[C@H](C)NC(=O)[C@H](CCCCN)NC(=O)[C@H](Cc1ccc(O)cc1)NC(=O)[C@H](CC(C)C)NC(=O)[C@H](C)NC(=O)[C@@H](NC(=O)[C@@H](NC(=O)[C@H](CC(N)=O)NC(=O)[C@@H](NC(=O)[C@H](C)NC(=O)[C@@H](NC(=O)[C@@H]1CCCN1C(=O)[C@@H](NC(=O)[C@H](CC(C)C)NC(=O)[C@@H]1CCCN1C(=O)[C@H](Cc1c[nH]c2ccccc12)NC(=O)[C@H](Cc1ccccc1)NC(=O)[C@H](CCCN=C(N)N)NC(=O)[C@@H](N)CCCCN)C(C)C)C(C)C)[C@@H](C)CC)[C@@H](C)O)C(C)C)C(=O)N[C@@H](CCCN=C(N)N)C(=O)N[C@@H](CCCN=C(N)N)C(=O)N[C@@H](CCCCN)C(N)=O [KRFWPLVPVAINTVALYKAIRRK]

MIC [7]: 10.1 µM (≈ 32 µg/mL) | MIC [8]: 2.54 µM (≈ 8 µg/mL) | MIC [9]: 19.8 µM (≈ 62.5 µg/mL) | MIC (Staphylococcus aureus): 10.1 µM (≈ 32 µg/mL) | MIC [10]: 10.1 µM (≈ 32 µg/mL) | MIC [11]: 5.07 µM (≈ 16 µg/mL)
SMILES: CC[C@H](C)[C@H](NC(=O)[C@H](Cc1ccccc1)NC(=O)[C@H](Cc1cnc[nH]1)NC(=O)[C@H](CCCCN)NC(=O)[C@@H](NC(=O)[C@@H](N)Cc1ccccc1)[C@@H](C)CC)C(=O)N[C@@H](Cc1cnc[nH]1)C(=O)N[C@@H](CCCN=C(N)N)C(=O)N[C@@H](Cc1ccccc1)C(=O)N[C@@H](CO)C(=O)NCC(=O)NCC(=O)N[C@@H](CC(C)C)C(=O)N[C@@H](CCC(N)=O)C(=O)N[C@@H](CC(C)C)C(=O)N[C@@H](CC(C)C)C(=O)N[C@@H](CCCCN)C(=O)N[C@@H](CCC(N)=O)C(=O)N[C@@H](CC(C)C)C(=O)N[C@@H](CC(C)C)C(=O)N[C@@H](CCCCN)C(=O)N[C@@H](CC(C)C)C(=O)N[C@@H](CC(C)C)C(=O)N[C@@H](CCCCN)C(=O)N[C@@H](CCC(N)=O)C(=O)N[C@@H](Cc1ccccc1)C(N)=O [FIKHFIHRFSGGLQLLKQLLKLLKQF]

MIC [1]: 5 µM (≈ 16.3 µg/mL) | MIC [12]: 5 µM (≈ 16.3 µg/mL) | MIC [13]: 5 µM (≈ 16.3 µg/mL) | MIC [14]: 20 µM (≈ 65.2 µg/mL) | MIC [15]: ≥ 40 µM | MIC [16]: > 40 µM | MIC [17]: 20 µM (≈ 65.2 µg/mL) | MIC [18]: ≥ 40 µM | MIC [19]: 10 µM (≈ 32.6 µg/mL)
SMILES: CC[C@H](C)[C@H](NC(=O)CN)C(=O)N[C@@H](CC(C)C)C(=O)N[C@@H](CO)C(=O)N[C@@H](CO)C(=O)N[C@@H](Cc1ccccc1)C(=O)N[C@@H](CCCCN)C(=O)NCC(=O)N[C@H](C(=O)N[C@@H](C)C(=O)N[C@@H](CCCCN)C(=O)NCC(=O)N[C@H](C(=O)N[C@@H](C)C(=O)N[C@@H](CCCCN)C(=O)N[C@@H](CC(N)=O)C(=O)N[C@@H](CC(C)C)C(=O)N[C@@H](C)C(=O)NCC(=O)N[C@@H](CCCCN)C(=O)N[C@@H](CC(C)C)C(=O)N[C@@H](CC(C)C)C(=O)N[C@@H](CC(=O)O)C(=O)N[C@@H](CCC(=O)O)C(=O)N[C@@H](CC(C)C)C(=O)N[C@@H](CCCCN)C(=O)N[C@H]1CSSC[C@@H](C(=O)O)NC(=O)CNC(=O)[C@H]([C@@H](C)O)NC(=O)[C@H]([C@@H](C)CC)NC(=O)[C@H](CCCCN)NC1=O)C(C)C)C(C)C [GILSSFKGVAKGVAKNLAGKLLDELKCKITGC]

MIC [1]: 25 µM (≈ 59.2 µg/mL) | MIC [12]: 3 µM (≈ 7.11 µg/mL) | MIC [13]: 6 µM (≈ 14.2 µg/mL) | MIC (Staphylococcus aureus): 32 µM (≈ 75.8 µg/mL) | MIC [14]: ≥ 50 µM | MIC [15]: ≥ 100 µM | MIC [16]: > 100 µM | MIC [17]: ≥ 100 µM | MIC [18]: ≥ 100 µM | MIC [19]: 6 µM (≈ 14.2 µg/mL)
SMILES: CC[C@H](C)[C@H](NC(=O)[C@H](Cc1cnc[nH]1)NC(=O)CNC(=O)[C@H](C)NC(=O)[C@@H](NC(=O)[C@@H](NC(=O)[C@H](CCCCN)NC(=O)[C@@H](NC(=O)[C@H](Cc1ccccc1)NC(=O)[C@H](C)NC(=O)[C@H](CCCCN)NC(=O)[C@H](C)NC(=O)[C@H](C)NC(=O)CNC(=O)[C@H](CCCCN)NC(=O)[C@H](CC(C)C)NC(=O)[C@@H](NC(=O)[C@H](CC(=O)O)NC(=O)[C@H](CCCN=C(N)N)NC(=O)[C@H](Cc1ccccc1)NC(=O)CN)C(C)C)C(C)C)[C@@H](C)O)C(C)C)C(=O)N[C@@H](C)C(=O)N[C@@H](CC(N)=O)C(N)=O [GFRDVLKGAAKAFVKTVAGHIAN]

MIC [1]: 8 µM (≈ 11.1 µg/mL) | MIC [20]: 4 µM (≈ 5.54 µg/mL) | MIC (Escherichia coli 078): 4 µM (≈ 5.54 µg/mL) | MIC [2]: 4 µM (≈ 5.54 µg/mL) | MIC [21]: 4 µM (≈ 5.54 µg/mL) | MIC [22]: 4 µM (≈ 5.54 µg/mL) | MIC (Escherichia coli UB1005): 4 µM (≈ 5.54 µg/mL) | MIC [5]: 2 µM (≈ 2.77 µg/mL) | MIC (Escherichia coli K88): 4 µM (≈ 5.54 µg/mL) | MIC [23]: 4 µM (≈ 5.54 µg/mL) | MIC (Escherichia coli K99): 2 µM (≈ 2.77 µg/mL) | MIC [24]: 2 µM (≈ 2.77 µg/mL) | MIC [25]: 2 µM (≈ 2.77 µg/mL)
SMILES: CC[C@H](C)[C@H](NC(=O)[C@H](CCCN=C(N)N)NC(=O)[C@H](C)NC(=O)[C@H](C)N)C(=O)N[C@H](C(=O)N[C@@H](CC(C)C)C(=O)N[C@@H](CCCN=C(N)N)C(=O)N[C@@H](CC(C)C)C(=O)N[C@@H](CCCN=C(N)N)C(=O)N[C@@H](Cc1ccccc1)C(=O)N[C@@H](CCCN=C(N)N)C(N)=O)[C@@H](C)CC [AARIILRLRFR]

MIC [7]: 24.1 µM (≈ 62.5 µg/mL) | MIC [8]: 12.4 µM (≈ 32 µg/mL) | MIC [9]: 12.4 µM (≈ 32 µg/mL) | MIC (Staphylococcus aureus): 12.4 µM (≈ 32 µg/mL) | MIC [10]: 12.4 µM (≈ 32 µg/mL) | MIC [11]: 3.09 µM (≈ 8 µg/mL)
SMILES: CC[C@H](C)[C@H](NC(=O)[C@H](Cc1ccccc1)NC(=O)[C@H](Cc1cnc[nH]1)NC(=O)[C@H](CCCCN)NC(=O)[C@@H](NC(=O)[C@@H](N)Cc1ccccc1)[C@@H](C)CC)C(=O)N[C@@H](Cc1cnc[nH]1)C(=O)N[C@@H](CCCN=C(N)N)C(=O)N[C@@H](Cc1ccccc1)C(=O)NCC(=O)NCC(=O)NCC(=O)N[C@@H](CCCN=C(N)N)C(=O)N[C@@H](Cc1c[nH]c2ccccc12)C(=O)N[C@@H](CCCN=C(N)N)C(=O)N[C@@H](Cc1c[nH]c2ccccc12)C(=O)N[C@@H](CCCN=C(N)N)C(=O)N[C@@H](Cc1c[nH]c2ccccc12)C(=O)N[C@@H](Cc1ccccc1)C(N)=O [FIKHFIHRFGGGRWRWRWF]

MIC [26]: ≥ 108 µM | MIC [1]: > 215 µM | MIC [12]: > 215 µM | MIC [27]: ≥ 108 µM | MIC [2]: > 215 µM | MIC [28]: 26.9 µM (≈ 25 µg/mL) | MIC [29]: ≥ 215 µM | MIC [5]: > 215 µM | MIC [30]: ≥ 215 µM
SMILES: CC(C)C[C@H](NC(=O)[C@H](Cc1c[nH]c2ccccc12)NC(=O)[C@H](CCCCN)NC(=O)[C@H](CC(C)C)NC(=O)[C@@H](N)CC(C)C)C(=O)N[C@@H](CCCCN)C(=O)N[C@@H](CCCCN)C(N)=O [LLKWLKK]
